According to patent publication US10722520B2, “Heterocyclic compounds and their use in preventing or treating bacterial infections” (MUTABILIS, priority 2016, dated 2020):

Experiments:
E. coli UFR39 = assay: MIC of compound alone, broth microdilution; type: cell-based; conditions: Escherichia coli, UFR39, read-out: MIC CAZ alone
How it was run: (§1)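 Log-phase bacteria were diluted to a final 5×10^5 cfu/mL in cation-adjusted Mueller-Hinton broth and incubated 16-20 h at 35° C in ambient air. MIC was taken as the lowest concentration preventing growth, judged visually.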

AmpC (PAE) = AmpC (PAE) (Pseudomonas aeruginosa, UniProt P24735); conditions: read-out: IC50 β-lactamase AmpC (PAE); class (C); nitrocefin 200 μM, 30-min pre-incubation, enzyme 0.4 nM
KPC-2 = KPC-2 (Klebsiella pneumoniae, UniProt Q9F663); conditions: read-out: IC50 β-lactamase KPC-2; class (A); nitrocefin 200 μM, 30-min pre-incubation, enzyme 1 nM
OXA-15 = OXA-15 (Pseudomonas aeruginosa, UniProt Q51574); conditions: read-out: IC50 β-lactamase OXA-15; class (D); nitrocefin 200 μM, 30-min pre-incubation, enzyme 0.4 nM
K. pneumoniae 6299 [1] = assay: MIC of ceftazidime (CAZ) at fixed concentration of compound (synergy), broth microdilution; type: cell-based; conditions: strain 6299; MIC of CAZ, compound fixed at 4 μg/mL
How it was run: as §1

P. aeruginosa CIP107051 [2] = assay: as above; type: cell-based; conditions: strain CIP107051; MIC of CAZ, compound fixed at 4 μg/mL
How it was run: as §1

E. cloacae P99 [3] = assay: as above; type: cell-based; conditions: strain P99; MIC of CAZ, compound fixed at 4 μg/mL
How it was run: as §1

E. coli 190317 [4] = assay: as above; type: cell-based; conditions: strain 190317; MIC of CAZ, compound fixed at 4 μg/mL
How it was run: as §1

K. pneumoniae BAA-1898 [5] = assay: as above; type: cell-based; conditions: strain BAA-1898; MIC of CAZ, compound fixed at 4 μg/mL
How it was run: as §1

OXA-48 = OXA-48 (Klebsiella pneumoniae, UniProt Q6XEC0); conditions: read-out: IC50 β-lactamase OXA-48; class (D); nitrocefin 200 μM, 30-min pre-incubation, enzyme 0.3 nM
CTX-M-15 = CTX-M-15 (Escherichia coli, UniProt Q9EXV5); conditions: read-out: IC50 β-lactamase CTX-M-15; class (A); nitrocefin 200 μM, 30-min pre-incubation, enzyme 0.4 nM
AmpC (P99) = AmpC (P99) (Enterobacter cloacae, UniProt P05364); conditions: read-out: IC50 β-lactamase AmpC (P99); class (C); nitrocefin 200 μM, 30-min pre-incubation, enzyme 0.2 nM
SHV-1 = SHV-1 (Klebsiella pneumoniae, UniProt P0AD64); conditions: read-out: IC50 β-lactamase SHV-1; class (A); nitrocefin 200 μM, 30-min pre-incubation, enzyme 0.075 nM
CMY-37 = CMY-37 (Citrobacter freundii, UniProt P05193); conditions: read-out: IC50 β-lactamase CMY-37; class (C); nitrocefin 200 μM, 30-min pre-incubation, enzyme 0.2 nM
OXA-1 = OXA-1 (Escherichia coli, UniProt P13661); conditions: read-out: IC50 β-lactamase OXA-1; class (D); nitrocefin 200 μM, 30-min pre-incubation, enzyme 0.2 nM
K. pneumoniae 6299 [6] = assay: MIC of compound alone, broth microdilution; type: cell-based; conditions: strain 6299; compound alone
How it was run: as §1

P. aeruginosa CIP107051 [7] = assay: MIC of compound alone, broth microdilution; type: cell-based; conditions: strain CIP107051; compound alone
How it was run: as §1

E. cloacae P99 [8] = assay: MIC of compound alone, broth microdilution; type: cell-based; conditions: strain P99; compound alone
How it was run: as §1

E. coli 190317 [9] = assay: MIC of compound alone, broth microdilution; type: cell-based; conditions: strain 190317; compound alone
How it was run: as §1

K. pneumoniae BAA-1898 [10] = assay: MIC of compound alone, broth microdilution; type: cell-based; conditions: strain BAA-1898; compound alone
How it was run: as §1

TEM-1 = TEM-1 (Escherichia coli, UniProt P62593); conditions: read-out: IC50 β-lactamase TEM-1; class (A); nitrocefin 200 μM, 30-min pre-incubation, enzyme 0.1 nM
OXA-11 = OXA-11 (Pseudomonas aeruginosa, UniProt Q06778); conditions: read-out: IC50 β-lactamase OXA-11; class (D); nitrocefin 200 μM, 30-min pre-incubation, enzyme 1.2 nM

Compound | IC50 (AmpC (PAE)) [nM] | IC50 (KPC-2) [nM] | IC50 (OXA-15) [nM] | MIC combination of CAZ and compounds of the invention at 4 μg/mL (K. pneumoniae 6299 [1]) [µg/mL] | MIC combination of CAZ and compounds of the invention at 4 μg/mL (P. aeruginosa CIP107051 [2]) [µg/mL] | MIC combination of CAZ and compounds of the invention at 4 μg/mL (E. cloacae P99 [3]) [µg/mL] | MIC combination of CAZ and compounds of the invention at 4 μg/mL (E. coli 190317 [4]) [µg/mL] | MIC combination of CAZ and compounds of the invention at 4 μg/mL (K. pneumoniae BAA-1898 [5]) [µg/mL] | IC50 (OXA-48) [nM] | IC50 (CTX-M-15) [nM] | IC50 (AmpC (P99)) [nM] | IC50 (SHV-1) [nM] | IC50 (CMY-37) [nM] | IC50 (OXA-1) [nM] | MIC compounds of the invention alone (K. pneumoniae 6299 [6]) [µg/mL] | MIC compounds of the invention alone (P. aeruginosa CIP107051 [7]) [µg/mL] | MIC compounds of the invention alone (E. cloacae P99 [8]) [µg/mL] | MIC compounds of the invention alone (E. coli 190317 [9]) [µg/mL] | MIC compounds of the invention alone (K. pneumoniae BAA-1898 [10]) [µg/mL] | IC50 (TEM-1) [nM] | further results
CC(C)(O/N=C(\C(=O)N[C@@H]1C(=O)N2C(C(=O)[O-])=C(C[n+]3ccccc3)CS[C@H]12)c1csc(N)n1)C(=O)O [CAZ, ceftazidime, reference compound] | – | – | – | – | – | – | – | – | – | – | – | – | – | – | – | – | – | – | – | – | MIC (E. coli UFR39): > 1020 µg/mL
CN(C)Cc1cn(C2=CC3CN(C2)C(=O)N3OS(=O)(=O)[O-])nn1.[Na+] (stereo not shown) [Example 59, sodium [3-[4-(dimethylamino)methyltriazol-1-yl]-7-oxo-1,6-diazabicyclo[3.2.1]oct-3-en-6-yl]sulfate] | 590 | 12 | 6.6 | ≤0.25 | 8 | <0.25 | <0.25 | ≤0.25 | 1.2 | 0.55 | 34 | 2.5 | 72 | 210 | >32 | >32 | 2 | 1 | >32 | 0.69 | IC50 (OXA-11): 170 nM
O=C([O-])Cc1cn(C2=CC3CN(C2)C(=O)N3OS(=O)(=O)[O-])nn1.[Na+].[Na+] (stereo not shown) [Example 61] | 1100 | 17 | 19 | 4 | 4 | 8 | 0.5 | 64 | 0.91 | 1.8 | 20 | 6.1 | 41 | 110 | 32 | >32 | 32 | 32 | >32 | 1.7 | IC50 (OXA-11): 360 nM
O=C([O-])CCc1cn(C2=CC3CN(C2)C(=O)N3OS(=O)(=O)[O-])nn1.[Na+].[Na+] (stereo not shown) [Example 65, disodium [3-[4-(propanoate)triazol-1-yl]-7-oxo-1,6-diazabicyclo[3.2.1]oct-3-en-6-yl]sulfate] | 490 | 6 | 6.7 | 2 | 8 | 8 | 0.5 | 64 | 0.8 | 0.96 | 11 | 2.8 | 13 | 53 | 32 | >32 | 32 | 32 | 32 | 0.27 | IC50 (OXA-11): 270 nM
CN(C)C.NC(=O)CCc1nccn1C1=CC2CN(C1)C(=O)N2OS(=O)(=O)O (stereo not shown) [Example 73, trimethylammonium [3-[2-(3-amino-3-oxo-propyl)imidazol-1-yl]-7-oxo-1,6-diazabicyclo[3.2.1]oct-3-en-6-yl]sulfate] | 250 | 78 | 270 | 4 | 8 | 4 | 0.5 | 1 | 3.7 | 4.4 | 92 | 9.8 | 86 | 44 | >32 | >32 | >32 | >32 | >32 | 1.9 | IC50 (OXA-11): 87 nM
O=C1N2CC(n3cc(S(=O)(=O)NCCO)cn3)=CC(C2)N1OS(=O)(=O)[O-].[Na+] (stereo not shown) [Example 74, sodium [3-[4-(2-hydroxyethylsulfamoyl)pyrazol-1-yl]-7-oxo-1,6-diazabicyclo[3.2.1]oct-3-en-6-yl]sulfate] | 110 | 3 | 48 | ≤0.25 | 8 | 0.5 | ≤0.25 | 0.25 | 2.9 | 1.1 | 9.5 | 2.2 | 25 | 22 | 16 | >32 | 16 | 8 | 16 | 0.34 | IC50 (OXA-11): 20 nM
O=C1N2CC(n3ccc(-c4ncco4)n3)=CC(C2)N1OS(=O)(=O)[O-].[Na+] (stereo not shown) [Example 78] | 250 | 2.7 | 24 | 2 | 8 | 8 | 0.5 | 16 | 3 | 0.46 | 14 | 1.5 | 29 | 64 | >32 | >32 | >32 | >32 | >32 | 0.37 | IC50 (OXA-11): 6.5 nM
